EC50 data for 72 compounds are collected here from ChEMBL document CHEMBL5729210, “Benzodiazepine derivatives as RSV inhibitors” (2022).

Where only a bound is given, the exact number is not on record here.

As a reminder, the EC50 is the concentration needed to bring the measured effect to its halfway point. A lower EC50 goes with greater potency.

This test is described as follows: RSV-A Assay: The description is Japanese.
As for `O=C1Nc2ccccc2C(c2ccccc2)=NC1Nc1nnc([C@H]2CCCO2)o1` (some centres not stated), the EC50 was above 800 nM.
In the case of `O=C1Nc2ccccc2C(c2ccccc2)=NC1Nc1nnc(-c2cnccc2N2CCOCC2)o1` (configuration not stated) it was “in the range around 600 nM”.
`Cc1cc(-c2nnc(N[C@H]3N=C(c4ccccc4)c4ccccc4NC3=O)o2)n(C2CCOCC2)n1` came in with an EC50 above 800 nM.
In the case of `COC(=O)c1nc(C)sc1N1CCOCC1` it was below 400 nM; in that of `Cn1ncc(-c2nnc(N[C@H]3N=C(c4ccccc4)c4ccccc4NC3=O)o2)c1N1CCOCC1`, above 800 nM; in that of `O=C1Nc2ccccc2C(c2ccccc2)=NC1Nc1nc2c(F)cccc2o1` (configuration not stated), above 800 nM.
Under `O=C1Nc2ccccc2C(c2ccccc2)=NC1Nc1nnc(-c2ccc(N3CCOCC3)cn2)o1` (configuration not stated) stands above 800 nM.
Under `Cc1cc(-c2nnc(NC3N=C(c4ccccc4)c4ccccc4NC3=O)o2)ccc1C#N` (configuration not stated) stands “in the range around 600 nM”; under `COCCn1nccc1-c1nnc(N[C@H]2N=C(c3ccccc3)c3ccccc3NC2=O)o1`, above 800 nM.
Regarding `COCCNc1sccc1-c1nnc(N[C@H]2N=C(c3ccccc3)c3ccccc3NC2=O)o1`, the EC50 was above 800 nM.
In the case of `CCOC(=O)c1ccc(F)cc1N1CCOCC1` it was below 400 nM; in that of `O=C1Nc2ccccc2C(c2ccccc2)=NC1Nc1nnc(-c2ccccc2-c2ccncc2)o1` (configuration not stated), above 800 nM.
Under `O=C1Nc2ccccc2C(c2ccccc2)=NC1Nc1cc(Oc2ccccc2)ncn1` (configuration not stated) stands above 800 nM; under `Cn1cnc(-c2nnc(NC3N=C(c4ccccc4)c4ccccc4NC3=O)o2)c1` (configuration not stated), above 800 nM.
In the case of `C[C@H]1COCCN1c1ncccc1-c1nnc(NC2N=C(c3ccccc3)c3ccccc3NC2=O)o1` (some centres not stated) it was above 800 nM; in that of `CS(=O)(=O)c1ccc(-c2nnc(NC3N=C(c4ccccc4)c4ccccc4NC3=O)o2)cc1` (configuration not stated), above 800 nM.
On to `O=C1Nc2ccccc2C(c2ccccc2)=NC1Nc1ncc(-c2ccc(F)cc2)o1` (configuration not stated), for which the EC50 is above 800 nM.
In the case of `O=C1Nc2ccccc2C(c2ccccc2)=NC1Nc1nnc(C2CCOCC2)o1` (configuration not stated) it was above 800 nM; in that of `O=C1Nc2ccccc2C(c2ccccc2)=N[C@@H]1Nc1nnc(-c2nc(C3CCCCC3)sc2N2CCOCC2)o1`, below 400 nM.
Under `C[C@@H]1CN(c2ncccc2-c2nnc(NC3N=C(c4ccccc4)c4ccccc4NC3=O)o2)CCO1` (some centres not stated) stands above 800 nM; under `O=C1Nc2ccccc2C(c2ccccc2)=NC1Nc1nnc(-c2ncc(C(F)(F)F)cc2N2CCOCC2)o1` (configuration not stated), below 400 nM.
`O=C1Nc2ccccc2C(c2ccccc2)=NC1Nc1cc(N2CCOCC2)cnn1` (configuration not stated): the EC50 was above 800 nM.
As to `N#Cc1cccc(-c2nnc(NC3N=C(c4ccccc4)c4ccccc4NC3=O)o2)c1` (configuration not stated), the EC50 was above 800 nM.
Under `O=C1Nc2ccccc2C(c2ccccc2)=N[C@@H]1Nc1nnc(-c2cnc(C(F)(F)F)nc2N2CC3CCC(C2)O3)o1` stands above 800 nM.
Under `O=C1Nc2ccccc2C(c2ccccc2)=NC1Nc1nnc(-c2ncc(N3CCOCC3)cc2F)o1` (configuration not stated) stands below 400 nM.
In the case of `CC1(C)CC(c2nnc(NC3N=C(c4ccccc4)c4ccccc4NC3=O)o2)C1` (configuration not stated) it was above 800 nM; in that of `O=C1Nc2ccccc2C(c2ccccc2)=NC1Nc1nnc([C@@H]2COCCN2)o1` (some centres not stated), above 800 nM; in that of `O=C1Nc2ccccc2C(c2ccccc2)=N[C@@H]1Nc1nnc(-c2ccc(N3C4CCC3COC4)cc2Cl)o1`, above 800 nM.
`CC(C)(O)c1nc(-c2nnc(N[C@H]3N=C(c4ccccc4)c4ccccc4NC3=O)o2)c(N2CCOCC2)s1` showed an EC50 below 400 nM.
Under `N#Cc1ccc(-c2cnc(NC3N=C(c4ccccc4)c4ccccc4NC3=O)o2)cc1` (configuration not stated) stands “in the range around 600 nM”; under `O=C1Nc2ccccc2C(c2ccccc2)=NC1Nc1nnc(-c2nccs2)o1` (configuration not stated), above 800 nM; under `Cc1nc(-c2nnc(N[C@H]3N=C(c4ccccc4)c4ccccc4NC3=O)o2)c(N2CCOCC2)o1`, below 400 nM.
Under `COC[C@@H]1CCCN1c1sc(C(F)(F)F)nc1-c1nnc(N[C@H]2N=C(c3ccccc3)c3ccccc3NC2=O)o1` stands above 800 nM; under `O=C1Nc2ccccc2C(c2ccccc2)=N[C@@H]1Nc1nnc(-c2ncc(C(F)(F)F)cc2N2CC3CCC(C2)O3)o1`, below 400 nM.
Compound `O=C1Nc2ccccc2C(c2ccccc2)=NC1Nc1ccnc(-c2ccccc2)n1` (configuration not stated) had an EC50 above 800 nM.
Under `COCCCc1cc(C(F)(F)F)cnc1C(=O)NN` stands above 800 nM.
Under `O=C1Nc2ccccc2C(c2ccccc2)=NC1Nc1nnc(-c2cnccn2)o1` (configuration not stated) stands above 800 nM; under `O=C1Nc2ccccc2C(c2ccccc2)=N[C@@H]1Nc1nnc(-c2cnc(-n3cccn3)nc2N2CCOCC2)o1`, above 800 nM; under `O=C(O)c1cnc(C(F)(F)F)nc1N1CCOCC1`, below 400 nM.
In the case of `O=C1Nc2ccccc2C(c2ccccc2)=NC1Nc1nnc(-c2ccccc2)s1` (configuration not stated) it was above 800 nM; in that of `C[C@@H]1COCCN1c1cc(C#N)cnc1-c1nnc(N[C@H]2N=C(c3ccccc3)c3ccccc3NC2=O)o1`, below 400 nM.
In turn, `N#Cc1ccc(-c2ccc(NC3N=C(c4ccccc4)c4ccccc4NC3=O)nn2)cc1` (configuration not stated) came in with an EC50 below 400 nM.
Under `O=C1Nc2ccccc2C(c2ccccc2)=N[C@H]1Nc1nnc(-c2ccc(N3CCOCC3)cc2)o1` stands above 800 nM; under `O=C1Nc2ccccc2C(c2ccccc2)=NC1Nc1nnc(C2CC3(CCNCC3)C2)o1` (configuration not stated), above 800 nM.
In the case of `O=C1Nc2ccccc2C(c2ccccc2)=N[C@@H]1Nc1nnc(-c2nc(C(F)(F)F)sc2N[C@@H]2CCOC2)o1` it was below 400 nM; in that of `O=C1Nc2ccccc2C(c2ccccc2)=NC1Nc1nnc(-c2ccccn2)o1` (configuration not stated), “in the range around 600 nM”.
In the case of `CCOC(=O)c1ccc(C2CC2)nc1Cl` it was below 400 nM; in that of `O=C1Nc2ccccc2C(c2ccccc2)=N[C@@H]1Nc1nnc(-c2nc(-c3ccc(F)cc3)sc2N2CCOCC2)o1`, below 400 nM.
For `O=C1Nc2ccccc2C(c2ccccc2)=N[C@@H]1Nc1nnc(-c2ncc(C(F)(F)F)cc2N[C@@H]2CCOC2)o1`, the EC50 is below 400 nM.
Regarding `O=C1Nc2ccccc2C(c2ccccc2)=NC1Nc1nnc(-c2cc[nH]c(=O)c2)o1` (configuration not stated), the EC50 was above 800 nM.
Under `Cn1cc(N2CCOCC2)c(-c2nnc(N[C@H]3N=C(c4ccccc4)c4ccccc4NC3=O)o2)n1` stands below 400 nM; under `N#Cc1ccc(-c2nnc(N[C@H]3N=C(c4ccccc4)c4ccccc4NC3=O)o2)c(N2C3CCC2COC3)c1`, below 400 nM.
The compound `COC(=O)c1ccc(Cl)nc1N1CCOCC1` gave an EC50 below 400 nM.
In the case of `N#Cc1ccc(-c2nnc(N[C@H]3N=C(c4ccccc4)c4ccccc4NC3=O)o2)c(-c2ccsc2)c1` it was above 800 nM.
In the case of `CCOC(=O)c1cnc(C2CC2)nc1N1CCOCC1` it was below 400 nM; in that of `COC1CCN(c2cc(C(F)(F)F)cnc2-c2nnc(N[C@H]3N=C(c4ccccc4)c4ccccc4NC3=O)o2)CC1`, above 800 nM.
In the case of `Cc1nc(-c2nnc(N[C@H]3N=C(c4ccccc4)c4ccccc4NC3=O)o2)c(C2=CCOCC2)s1` it was below 400 nM.
`O=C1Nc2ccccc2C(c2ccccc2)=N[C@@H]1Nc1nnc(-c2ncc(C(F)(F)F)cc2N[C@H]2CCOC2)o1` registered an EC50 above 800 nM.
In the case of `Cc1ccc(-c2nnc(N[C@H]3N=C(c4ccccc4)c4ccccc4NC3=O)o2)c(N2CCOCC2)n1` it was below 400 nM; in that of `O=C1Nc2ccccc2C(c2ccccc2)=N[C@@H]1Nc1nnc(-c2ccc(F)nc2N2CCOCC2)o1`, below 400 nM.
In the case of `O=C1Nc2ccccc2C(c2ccccc2)=NC1Nc1nnc(-c2ncccn2)o1` (configuration not stated) it was above 800 nM.
In the case of `O=C1Nc2ccccc2C(c2ccccc2)=N[C@@H]1Nc1nnc(-c2ccc(N3CCOCC3)cc2F)o1` it was below 400 nM; in that of `N#Cc1ccc(N2CCOCC2)c(-c2nnc(N[C@H]3N=C(c4ccccc4)c4ccccc4NC3=O)o2)n1`, below 400 nM.
Take `C[C@H]1CN(c2cc(C(F)(F)F)cnc2-c2nnc(N[C@H]3N=C(c4ccccc4)c4ccccc4NC3=O)o2)CCO1`: the EC50 was below 400 nM.
In the case of `O=C1Nc2ccccc2C(c2ccccc2)=N[C@@H]1Nc1nnc(-c2nc(-c3ccccc3)sc2N2CCOCC2)o1` it was below 400 nM; in that of `O=C1Nc2ccccc2C(c2ccccc2)=NC1Nc1cc(-c2ccccc2)ncn1` (configuration not stated), above 800 nM.
In the case of `COC(=O)c1nc(-c2ccccn2)sc1Cl` it was below 400 nM; in that of `O=C1Nc2ccccc2C(c2ccccc2)=N[C@@H]1Nc1nnc(-c2ccc(C(F)(F)F)cc2N2CCOCC2)o1`, below 400 nM.
In the case of `O=C1Nc2ccccc2C(c2ccccc2)=NC1Nc1nnc(-c2cscn2)o1` (configuration not stated) it was “in the range around 600 nM”; in that of `CNc1cc(C(F)(F)F)cnc1-c1nnc(N[C@H]2N=C(c3ccccc3)c3ccccc3NC2=O)o1`, above 800 nM; in that of `Cn1cc(-c2nnc(N[C@H]3N=C(c4ccccc4)c4ccccc4NC3=O)o2)c(N2CCOCC2)n1`, below 400 nM.
The compound `CS(=O)(=O)c1ccc(-c2nnc(NC3N=C(c4ccccc4)c4ccccc4NC3=O)o2)nc1` (configuration not stated) displayed an EC50 above 800 nM.
